Here are results for one compound from patent US20110020312A1, “METHODS FOR TREATMENT OF METABOLIC DISORDERS USING EPIMETABOLIC SHIFTERS, MULTIDIMENSIONAL INTRACELLULAR MOLECULES, OR ENVIRONMENTAL INFLUENCERS” (priority 2009, published 2011).

Structures are written as SMILES.

For one data set, the system named is HDFa cells. As to the kind of experiment: Oxygen consumption rate (OCR), SeaHorse XF analyzer. It is filed as cell-based, human. The following applies: presence of CoQ10. An excerpt:
Environmental influencers (e.g., MIMs or Epi-shifters) may also be identified by changes in cellular energetics. One example of the measurement of cellular energetics are the real-time measures of the consumption of molecular oxygen and/or the change in pH of the media of a cell culture. For example, the ability of a potential epi-shifter to modulate the metabolic state of a cell may be analyzed using, for example, the XF24 Analyzer (Seahorse, Inc.). This technology allows for real time detection of oxygen and pH changes in a monolayer of cells in order to evaluate the bioenergetics of a cell microenvironment. The XF24 Analyzer measures and compares the rates of oxygen consumption (OCR), which is a measure of aerobic metabolism, and extracellular acidification (ECAR), which is a measure of glycolysis, both key indicators of cellular energetics.
(SeaHorse Biosciences Inc, North Billerica, Mass.).
In this experiment, the OCR and extracellular acidification rate (ECAR) in normal cells lines were obtained in the presence and absence of CoQ10 to determine baseline values. It was observed that in its native nutrient environment, the basal OCR rates in normal cells lines are different, and are usually a function of the physiological roles of the cells in the body. […]

The test system of the next data set is melanoma cell. Kind of data set: Bcl2 level after CoQ-10 in the presence of VEGF. It is filed as cell-based.
The subject of the next data set is PC-3 cells. As to the kind of experiment: Nexin assay for apoptosis, 24 h Q10. It is filed as cell-based. The settings on record: 50 μM and 100 μM Q10, 24 hours; increase less than in PaCa2. An excerpt:
(§1) The 7AAD dye will enter into cells with permeabilized cell membranes; primarily those cells that are in late apoptosis. Annexin-V-PE is a dye that binds to Phosphotidyl serine, which is exposed on the outer surface of the plasma membrane in early apoptotic cells. The Nexin reagent thus can be used to differentiate between different populations of apoptotic cells in a flow cytometer.

The test system of another data set is MCF-7 cells. As to the kind of experiment: Nexin assay for apoptosis, 24 h Q10. It is filed as cell-based. The settings on record: 50 μM and 100 μM Q10, 24 hours.
Description: as §1

The subject of another data set is HepG2 cells. Kind of data set: Nexin assay for apoptosis, 24 h Q10. It is filed as cell-based. The following applies: 50 μM Q10, 24 hours.
Description: as §1

Another data set concerns ATP Citrate Lyase (ACL). Kind of data set: Western blot, ATP Citrate Lyase levels in normal and cancer cells. Type of data set: cell-based, human. How it is done: The whole cell pellets were resuspended one at a time in 1 mL of C7 buffer and transferred to labeled 15 mL tubes. The samples were then sonicated in the cold room on ice using 6 sonic pulses with the setting at #14. The samples were spun for a short time to 2500 g after sonication and the samples transferred to 2 ml tubes. The pH was verified of each sample (pH should be 9.0) using the foam remaining in the […] sample tubes.
After transfer each of the blots was placed in between 2 Whatman Filter papers and dried for 15-20 minutes. After drying the blots were labeled with the date, the type of samples and either blot 1 or blot 2 using a HB pencil. The molecular weight markers were outlined with the pencil and with single lines for the blue and a doublet for the colored markers. The blots were activated with methanol for 5 seconds, washed with water for 5 minutes, and TBST for 15 minutes. The blots were blocked for 1 hour with 5% blocking reagent in TBS-T at room temperature and then washed 3 times with TBS-T (1×-15′; 2×5′ each). Blot 1 was probed with the primary antibody for IDH1 (Cell Signaling #3997) in TBST with 5% BSA (at 1:1000 dilutions) and blot 2 with the rabbit polyclonal antibody for ATP Citrate Lyase in 5% BSA (Cell Signaling #4332) at 1:1000 dilution by incubation overnight at 4 deg C. with shaking. After the overnight incubation with primary antibodies, the blots were washed 3 times with TBS-T (1×-15′; 2×5′ each) and probed with the secondary antibody (antirabbit; 1:10,000 dilution) for 1 h on the orbital tilting shaker at room temperature. After 1 h of incubation with secondary antibodies, the blots were washed 3 times with TBS-T (1×-15′; 2×5′ each) and then incubated with ECF reagent for 5 mins and then each blot scanned with 5100 Fuji Laser scanner at 25 uM resolution, 16 bit, green laser, at 400V and at 500 V.
The samples were processed and run on a 4-12% Bis-Tris Novex NuPAGE gel as described above. The gels were run, transferred and stained essentially as described above.
The Isocitrate dehydrogenase blot was stripped by incubating for 30 minutes with methanol, followed by two 10 minute washes with TBS-T, then 30 minutes of incubation with stripping buffer at 50 deg C., and followed by two washes with 100 ml or more of TBS-T for 30′ each. The blot was scanned in laser scanner to check for complete stripping. The blot was activated with methanol for 5 seconds, washed with water for 5 minutes, and TBST for 15 minutes. The blot was blocked for 1 hour with 5% blocking reagent in TBS-T at room temperature and then washed 3 times with TBS-T (1×-15′; 2×5′ each). This was then probed with the rabbit polyclonal antibody for ATP Citrate Lyase in 5% BSA (Cell Signaling #4332) at 1:1000 dilution overnight at 4 deg C. with shaking. After the overnight incubation with primary antibody for ATP Citrate Lyase, the membrane was washed 3 times with TBS-T (1×-15′; 2×5′ each) and probed with the secondary antibody (antirabbit; 1:10,000 dilution) for 1 h on the orbital tilting shaker at room temperature. After 1 h of incubation with secondary antibodies, the blot was washed 3 times with TBS-T (1×-15′; 2×5′ each) and then incubated with ECF reagent for 5 minutes and then each blot scanned with 5100 Fuji Laser scanner at 25 uM resolution, 16 bit, green laser, at 400V and at 500 V.
In this experiment (western blot experiment 3), and in all of the experiments described below in this Example (i.e., western blot experiments 4 through 9), the cells were additionally treated with either 5 mM glucose (“5G”) or 22 mM glucose (“22G”). The samples derived from the cells were processed and run on a 4-12% Bis-Tris Novex NuPAGE gel as described above. The gels were run, transferred and stained essentially as described above.
The levels of IDH1, ATP citrate lyase and actin levels were determined by probing the blots with primary antibodies for IDH1, ATP citrate lyase and actin, essentially as described above.

For data set [1] the following is noted: rats, oral; cited from earlier work.
The test system of the next data set is HepG2 liver cancer cells. Kind of data set: ApoStrand ELISA apoptosis assay (single-stranded DNA). It is filed as cell-based. An excerpt: The ApoStrand™ ELISA is based on the sensitivity of DNA in apoptotic cells to formamide denaturation and the detection of the denatured DNA with a monoclonal antibody to single-stranded DNA (ssDNA).
A general note: ELISA stands for enzyme-linked immunosorbent assay.

With `COC1=C(OC)C(=O)C(C/C=C(\C)CC/C=C(\C)CC/C=C(\C)CC/C=C(\C)CC/C=C(\C)CC/C=C(\C)CC/C=C(\C)CC/C=C(\C)CC/C=C(\C)CCC=C(C)C)=C(C)C1=O` [Q10, Coenzyme Q10], in the data set with HDFa cells, the OCR entry was “influenced OCR”. Also, in the data set with melanoma cell, the “level of Bcl2” value is “decreased level”. For the same compound, the “early and late apoptotic population” value in the data set on PC-3 cells is “increase in both early and late apoptotic population”. Moreover, the early/late apoptotic population entry with MCF-7 cells is on record as “increase only in early apoptotic population”. For the same compound, in the data set on HepG2 cells, the “increase of gated population in late and early apoptotic stages” value is “about 20%”. The “ATPCL Average Normalized Intensity” value in the data set on ATP Citrate Lyase (ACL) (HDFa, HDF-50) is recorded as approximately 17500; in the data set on ATP Citrate Lyase (ACL) (HDFa, HDF-100) it was approximately 25000; with ATP Citrate Lyase (ACL) (MCF-7, MCF-50), approximately 7500; in the data set on ATP Citrate Lyase (ACL) (MCF-7, MCF-100), approximately 12500. Moreover, the ATP Citrate Lysase Normalized Intensity as % in the data set with ATP Citrate Lyase (ACL) (HepG2, Hep5g48-50) was found to be 85%; with ATP Citrate Lyase (ACL) (HepG2, Hep5g48-100) it was 79%; in the data set with ATP Citrate Lyase (ACL) (HepG2, Hep22G48-50), 129%; in the data set with ATP Citrate Lyase (ACL) (HepG2, Hep22G48-100) it was 209%; in the data set with ATP Citrate Lyase (ACL) (PACA2, PACA5g48-50) it was 68%; with ATP Citrate Lyase (ACL) (PACA2, PACA5g48-100), 42%. In addition, the ATP Citrate Lysase Normalized Intensity as % was 112% with ATP Citrate Lyase (ACL) (PACA2, PACA22G48-50) and 174% with ATP Citrate Lyase (ACL) (PACA2, PACA22G48-100). Moreover, the “expression of ACL enzymes” value in the data set on ATP Citrate Lyase (ACL) (cancer cells) is “dose-dependent decrease”. Also, in the data set on ATP Citrate Lyase (ACL) (normal cells), the “expression of ACL” value is on record as “trend towards increased expression”. Further, the “orally-administered CoQ10 absorbed” value in data set [1] is 2-3%. Moreover, the “detectable apoptosis (ApoStrand ELISA)” value with HepG2 liver cancer cells (50 μM Q10) stood at 17%; in the data set with HepG2 liver cancer cells (100 μM Q10), 32%.
